{
  "source": "paper PMC12224983",
  "about": "“Isoquercitrin Alleviates Diabetic Nephropathy by Inhibiting STAT3 Phosphorylation and Dimerization” (Advanced Science, 2025)",
  "biological_target": "T1, signal transducer and activator of transcription 3 (STAT3) (Homo sapiens, UniProt P40763)",
  "T1 construct": "Wild-type STAT3 proteins",
  "T1 sequence (P40763 2-770)": "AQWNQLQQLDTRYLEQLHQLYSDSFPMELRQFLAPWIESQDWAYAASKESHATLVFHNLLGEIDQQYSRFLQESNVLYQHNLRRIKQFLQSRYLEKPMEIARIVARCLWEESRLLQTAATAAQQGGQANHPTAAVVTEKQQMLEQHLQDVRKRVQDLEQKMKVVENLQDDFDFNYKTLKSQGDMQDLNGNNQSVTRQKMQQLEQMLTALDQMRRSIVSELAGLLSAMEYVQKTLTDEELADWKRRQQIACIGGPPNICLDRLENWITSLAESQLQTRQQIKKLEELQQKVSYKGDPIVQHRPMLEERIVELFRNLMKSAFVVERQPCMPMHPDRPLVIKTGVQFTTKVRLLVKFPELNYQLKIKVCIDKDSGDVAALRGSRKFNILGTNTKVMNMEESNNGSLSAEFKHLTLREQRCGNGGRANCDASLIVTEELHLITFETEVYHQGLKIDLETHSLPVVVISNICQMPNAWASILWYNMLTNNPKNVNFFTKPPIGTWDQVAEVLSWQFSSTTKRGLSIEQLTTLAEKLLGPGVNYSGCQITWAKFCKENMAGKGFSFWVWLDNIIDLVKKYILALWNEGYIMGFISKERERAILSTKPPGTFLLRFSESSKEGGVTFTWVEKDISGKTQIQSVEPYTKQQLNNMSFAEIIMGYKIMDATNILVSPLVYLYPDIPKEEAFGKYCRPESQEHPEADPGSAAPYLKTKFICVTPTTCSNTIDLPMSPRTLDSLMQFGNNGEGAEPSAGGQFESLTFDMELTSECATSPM",
  "experiment": "SPR (BIAcore T200, STAT3 immobilized on CM5 chip); supported by pull-down, proteome microarray and CETSA",
  "assay_type": "binding",
  "data": [
    {"compound": "O=c1c(O[C@@H]2O[C@H](CO)[C@@H](O)[C@H](O)[C@H]2O)c(-c2ccc(O)c(O)c2)oc2cc(O)cc(O)c12", "note": "[Isoquercitrin]", "values": [
      {"measurement": "Kd", "result": 2.86, "unit": "µM"}
    ]}
  ]
}
